This passage reports melting point results from a melting point compilation (Tetko et al.; mined from patent text by program, amines drawn as free bases though some values may be those of a salt).

Some results are limits rather than exact numbers.

Turning to `COCCNS(=O)(=O)CC1CC(C)(C)Oc2ccc(OCCO)cc21` (stereo not given), the melting point (in general, the temperature, or range, at which the solid turns liquid) is 61 to 63 °C.

`COc1cc(-c2nnc(C)s2)cc2oc(=O)c(Cl)c(C)c12` returned a melting point of 176 to 177 °C.

In the case of `COC1=CC(=O)OC1=C(COC(C)=O)C(C)C(C)=O` (stereo not given), the melting point lay in the range of 54 to 56 °C.

In the case of `C#CCOC(=O)c1c(F)cccc1Oc1nc(OC)cc(OC)n1`, the melting point was in the range of 49 to 50 °C.

Take `CCOC(=O)CC(=O)c1cc(F)c(Br)c(F)c1F`: the melting point is 51 to 59 °C.

On to `c1ccc2c(=Nc3ccncc3)cc3oc4cc(N5CCOCC5)ccc4nc-3c2c1`, for which the melting point is greater than 300 °C.

The compound `Nc1nc(N)c2ncn(COCCOC=O)c2n1` registered a melting point of 238 to 240 °C.

Compound `CC(C)(C)OC(=O)c1ncn2c1[C@@H]1CCN1C(=O)c1c(I)cccc1-2` displayed a melting point of 249 to 250 °C.

Regarding `CO/N=C(/CNC(=O)c1cnc(O[C@@H](C)C(F)(F)F)c(-c2ccc(Cl)cc2)n1)C1CC1`, the melting point fell in the range of 149 to 152 °C.

Take `COC(=O)C(Cc1ccccc1)Oc1ccc2cc(CN(C)C(=O)c3oc4ccccc4c3CCc3ccccc3)ccc2c1Br` (stereo not given): the melting point lay in the range of 29 to 32 °C.

Compound `O=C(O)c1cccc(CN2CCC(c3cn(CC4CC4)c4ccccc34)CC2)c1` gave a melting point of 207 °C.

`O=C1CCCN1C1=CC(CF)(CF)Oc2ccc(C(F)(F)F)cc21` showed a melting point of 125 to 127 °C.

`O=C(O)Cc1cc(F)cc(Cc2nc3c(F)c(F)cc(F)c3s2)c1` displayed a melting point of 139 to 142 °C.

On to `O=c1ccc(-c2ccc(CCCO)cc2)cn1Cc1ccc(Cl)cc1`, for which the melting point was determined as 165 °C.

In the case of `COc1cc(N2CCN([C@H](C)c3ccc(OC)c(OC)c3)CC2)ccc1Cl`, the melting point is 172 to 176 °C.

As to `CC1COc2c(F)c(Cl)cc3c(=O)c(C(=O)O)cn1c23` (stereo not given), the melting point was greater than 300 °C.

`COC(=O)C=Cc1ccc(-c2ccccc2)cc1` came in with a melting point of 144 to 147 °C.

For `CC(C)CC(C(=O)Nc1cc(Cl)cc(Cl)c1)N1C(=O)C=CC1=O` (stereo not given), the melting point turned out to be 150 °C.

In turn, `Cn1c(COc2ccc(CC3SC(=O)NC3=O)cc2)nc2ccc(Oc3cccc(NC(=O)Nc4ccccc4C(F)(F)F)c3)cc21` (stereo not given) displayed a melting point of 161 to 164 °C.

Take `CCCC1(C)CC(C)c2ccc(O)c(C)c2O1` (stereo not given): the melting point amounted to 60 °C.

For the compound `Oc1ccc(-c2ccc(F)cc2F)cc1C12CC3CC(CC(C3)C1)C2`, the melting point fell in the range of 146 to 148 °C.

Compound `CC(C)NC(=S)Nc1ccc(Cl)c(-c2ccnc3c(C(=O)c4cccs4)cnn23)c1` came in with a melting point of 194 to 195 °C.

`CN(C)CCCC1CCCCN1C(=O)N1c2ccccc2C(=O)Nc2cccnc21` (stereo not given) had a melting point of 142 to 144 °C.

Regarding `COc1ccc(-c2cc(F)c(F)cc2-c2ccc(S(C)(=O)=O)cc2)cc1F`, the melting point is 159 to 160 °C.

With `COc1cc2cnn(CCCl)c(=O)c2cc1OC`, the melting point was 181 to 183 °C.

`CNC(=O)c1cccc(C2=NC(C)(C)Cc3cc(OC)c4c(c32)CC(C)(C)O4)c1` gave a melting point of 206 to 207 °C.

Consider `O=C(c1ccncc1)N1CCN=C1Nc1c(Cl)cccc1Cl`, for which the melting point fell in the range of 82.5 to 83.5 °C.

For the compound `CN(C)n1cnnc1NN=Cc1c(Cl)cccc1Cl`, the melting point was 189 °C.

On to `CCCCOc1c(CN2C(=O)c3ccccc3C2=O)n(CC(C)(C)C)c(=O)c2ccc(F)cc12`, for which the melting point lay in the range of 162 to 164 °C.

The compound `Cc1cc(SC(C)C)c(NC(=O)CCCCCCCCSc2nc3cccc(C(F)(F)F)c3o2)c(SC(C)C)n1` registered a melting point of 97 to 98 °C.

As for `CCOC(=O)C(C(=O)O)=C1SCS1`, the melting point was 166 to 167 °C.

Compound `CC1(C)CCc2c(ccc3c2C(=O)C=C(O)C3=O)O1` gave a melting point of 184 to 187 °C.

The compound `CCc1nn(CCOc2ccc(C=O)cc2)c(=O)c2ccccc12` came in with a melting point of 110 °C.

For `O=C1CCCc2c1cccc2N1CCN(CCCCOc2ccc3ccc(=O)[nH]c3n2)CC1`, the melting point lay within 158 to 160 °C.

`OC(CCc1c[nH]cn1)(c1ccccc1)c1ccccc1` returned a melting point of 189 to 191 °C.

For `CS(=O)(=O)N(c1ccc(CN2N=C(c3ccc(Cl)cc3)c3ccccc3-n3cnnc32)cc1)S(C)(=O)=O`, the melting point was 220 to 221 °C.

The compound `NC(=O)Nc1n[nH]c(-c2ccncc2)c1-c1ccc(F)cc1` yielded a melting point of 224 to 225 °C.

Compound `Cc1oc(-c2ccccc2)nc1COc1ccc(C=NO)cc1` displayed a melting point of 192 to 193 °C.

`CCCCCC1CCC(c2ccc(-c3cc(F)c(C(F)(F)Oc4cc(F)c(C(F)(F)F)c(F)c4)c(F)c3)c(F)c2)OC1` (stereo not given): the melting point came out at 75 °C.

In the case of `CCCCCCCCCCCCCCCCCCOC(=O)CP(=O)(OCC)OCC`, the melting point lay in the range of 28 to 31 °C.

`CC(C)(C)OC(=O)Cn1ccn(C2CCc3ccccc3C2)c1=S` (stereo not given) showed a melting point of 167 to 169 °C.

In the case of `c1ccc(-c2ncc(-c3cnc(-c4ccccc4)o3)cn2)cc1`, the melting point is 228 to 231 °C.

In the case of `O=c1ccc(-c2ccc3c(c2)CCN(C2CCC2)CC3)n[nH]1`, the melting point fell in the range of 250 to 251 °C.

As to `Nc1ccc(C(=O)c2ccccc2)cc1F`, the melting point lay within 83 to 85 °C.

The compound `CNC(=O)N(O)Cc1ccoc1` yielded a melting point of 129 to 131 °C.

In turn, `CCOC(=O)c1cc(CC)sc1Nc1ccc(Cl)cc1[N+](=O)[O-]` returned a melting point of 75 to 76.5 °C.

As for `COC(=O)C(=NOCc1ccccc1)C(C)=O`, the melting point was 35 to 36 °C.

In turn, `N=C(Nc1ccccc1)Nc1ncccc1OCc1c(F)cccc1F` displayed a melting point of 136 to 137 °C.

Compound `CC(C)n1nc(C(Cl)C(=O)c2ccccc2)ccc1=O` (stereo not given) had a melting point of 86.5 to 87.5 °C.

`CS(=O)(=O)CCCCC(Cc1ccccc1)S(=O)(=O)c1ccc(Cl)cc1` (stereo not given) gave a melting point of 68 to 70 °C.

Turning to `CCCC=CCC1CC(=O)N(c2cc(Cc3n[nH]c(=O)c4ccccc34)ccc2F)C1=O` (stereo not given), the melting point was 146 to 149 °C.

In the case of `CC(N1C(=O)C(=O)N(c2ccc(Br)cc2)C1=S)C(C)(C)C` (stereo not given), the melting point was in the range of 207 to 208 °C.

Regarding `NC1=NS(=O)N=C1NCCCCN(Cc1ccc(Cl)cc1)c1ccccn1` (stereo not given), the melting point fell in the range of 175 to 177 °C.

Regarding `CCCC1=NN(c2ccccc2C(=O)O)C(=O)C1=CNc1ccccc1CC`, the melting point came out at 127 °C.

In the case of `CCCCc1ccc(NC=NO)c(C)c1`, the melting point lay within 132 to 134 °C.

As to `CCC12CCC3C4CCC(OC)=CC4=CCC3C1C(OC(C)=O)CC2=O` (stereo not given), the melting point came to 190 °C.

`COC(O)c1ccc2c(c1)C(C(Cl)(Cl)Cl)OC(C(Cl)(Cl)Cl)O2` (stereo not given): the melting point lay in the range of 123 to 125 °C.

As for `COc1ccc(C(=O)CCCCCBr)cc1OC`, the melting point is 38 to 40 °C.

Take `Cc1nc(N)c2nc(CO)n(CC(C)C)c2c1C`: the melting point lay in the range of 231 to 234 °C.

In turn, `CCOC(=O)C(=O)Nc1ccc(OC)cc1[N+](=O)[O-]` showed a melting point of 151 °C.

Regarding `CNC(C)C(=O)Nc1cccc2c1C(=O)c1c(NC(=O)C(C)NC)cccc1C2=O` (stereo not given), the melting point was in the range of 233 to 234 °C.

In turn, `Cc1cc(C)cc([PH](=O)c2cc(C)cc(C)c2)c1` had a melting point of 82.4 °C.

`CCn1cc(C(=O)O)c(=O)c2cn(C)nc21` displayed a melting point of 273 to 275 °C.

Compound `C=Cc1ccc(Nc2nc(Cl)nc(Cl)n2)cc1` registered a melting point of 152 to 154 °C.

Take `CCCc1nc2cnc3cc(Br)ccc3c2n1CC1CCN(C(=O)OC(C)(C)C)CC1`: the melting point was 215 to 216 °C.

For the compound `COC(=O)C(C)=Cc1cc(N)ccc1Cl`, the melting point was 80 °C.

Consider `COc1ccc(CN(CCN(C)CCCNC(=O)NCCSCc2csc(NC(=N)N)n2)c2ccccn2)cc1`, for which the melting point is 106 to 109 °C.

`CN(C)c1ccccc1SCc1noc(CSc2ccc(Br)cc2)n1` displayed a melting point of 78 °C.

The compound `Cc1cccc(C(=O)NC(CC(C)C)C(=O)O)c1SSc1c(C)cccc1C(=O)NC(CC(C)C)C(=O)O` (stereo not given) had a melting point of 210 to 211 °C.

Consider `CCCn1c(=O)c2[nH]c(/C=C/c3ccc(OC)cc3)nc2n(CCC)c1=O`, for which the melting point lay in the range of 281 to 284 °C.

`C[C@@H]1CC=C(S(=O)(=O)c2ccccc2)[C@H](O)C1` displayed a melting point of 79 to 81 °C.

With `COc1ccccc1C(=O)C=Cc1ccncc1`, the melting point was found to be 70 °C.

In the case of `CC(=O)c1c2cnnc-2sn1C`, the melting point lay within 130 to 131 °C.

With `C=C(CC1(CC(=C)c2ccc(C(=O)Nc3ccccc3N)cc2)C(=O)N(C)C(=O)N(C)C1=O)c1ccc(C(=O)Nc2ccccc2N)cc1`, the melting point was in the range of 161 to 163 °C.

Compound `COc1cc(C=C(C#N)C(=O)Nc2cccc(Cl)c2)cc(F)c1O` came in with a melting point of 235 °C.

`CCCCc1oc2ccccc2c1C(=O)NCc1ccc2cc(OCC#N)ccc2c1` returned a melting point of 142 to 143 °C.

Turning to `ONCc1ccccc1`, the melting point lay in the range of 56 to 57 °C.

Compound `CCCCCCCCC#CCC#CCC#CCS(=O)(=O)CC(=O)OC` showed a melting point of 69 °C.

`Cc1c(C#Cc2ccc(C(F)(F)F)cc2)ccc(N)c1C#N` yielded a melting point of 136 to 138 °C.

The compound `CCCOc1ccc(-c2ccc3c(c2)C=C(C(=O)Nc2ccc(CN(C)C4CCOCC4)cc2)CCS3(=O)=O)cc1OCCC` showed a melting point of 206 to 208 °C.

As to `Cc1nc(N)c2nc(C)n(CCOCc3ccccc3)c2c1C`, the melting point was 137 to 138 °C.

In the case of `O=C(c1ccc2[nH]ccc2c1)N1CCN(CCc2ccc3nonc3c2)CC1`, the melting point fell in the range of 180 to 183 °C.

As for `Cc1oc(-c2ccccc2)nc1COc1ccc(OC(C)(C)C(=O)O)cc1`, the melting point is 136 to 138 °C.

For the compound `COc1ccccc1Cn1c(-c2cc(OC)c(OC)c(OC)c2)nc2ccccc21`, the melting point was 136 °C.

Take `O=C1NCc2cc(C(=O)c3ccccc3)ccc2N1`: the melting point amounted to 265 °C.

`Cc1ncc2n1-c1ccc(Cl)cc1C(c1ccccc1F)N=C2` (stereo not given) had a melting point of 180 to 181 °C.

Regarding `O=C(O)c1cnc2ccoc2c1`, the melting point is 238 to 239 °C.

For `CCOC(=O)c1cnn(-c2ccc(-n3cc(OC)c(=O)c(-c4ccnn4-c4ccccc4)n3)c(F)c2)c1O`, the melting point was 188 to 193 °C.

In the case of `O=P(O)(O)CCCCc1ccccc1`, the melting point fell in the range of 88 to 90 °C.

In the case of `COc1cc2[nH]c(C)c(CCN3CCN(NC(=O)c4ccccc4)CC3)c2cc1OC`, the melting point was in the range of 128 to 131 °C.
